Results from PubChem BioAssay (NCI).
Several values for one entry are separate records, joined by “and”; a condition that tells them apart may be missing. Identical values can stand only once.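 Where inhibition never reached the appropriate level, the endpoint shown equals the highest concentration tested. Otherwise, values were interpolated linearly from a five-concentration, 48-hour dose response in 96-well plates. Abbreviation: GI50, concentration required for 50% inhibition of growth. TGI is the concentration that stops growth completely.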

System: HS 578T breast
Test: growth of human tumour cells (NCI), 48 h

SMILES	GI50 [µM]	TGI [µM]
Cn1cc(-c2csc(-c3c[nH]c4ccc(Br)cc34)n2)c2cnccc21	2.47	5
CCOC(=O)c1c(-c2ccc(OC)cc2)c(C#N)c2c(C#N)c(N)nn2c1N	2.96	27.6

System: PC-3 prostate
Test: growth of human tumour cells (NCI), 48 h

SMILES	GI50	TGI
Cn1c(Nc2ccc(C(F)(F)F)cc2)nc2cc(Oc3ccnc(-c4ncc(C(F)(F)F)[nH]4)c3)ccc21	1.53 µM	17.2 µM
COc1ccc(-c2nsc3c2NC(=O)CC3c2cccc(OC)c2)cc1 (stereo not drawn)	2.45 µM	> 100 µM
C[C@@]12CCC[C@@](C)(C(=O)O)C1CC[C@]13CC(=O)[C@](CO)(C1)[C@@H](O)CC32 (stereo partly drawn)	> 100 µM	> 100 µM
COc1ccc(-c2cc(/C=C/C(=O)c3ccc(OC)c(OC)c3)[nH]n2)cc1	1.45 µM	3.46 µM
CCCCCCCN=C(N)c1ccc(N2CCN(c3ccc(C(N)=NCCCCCCC)cc3)CC2)cc1	0.268 µM	> 20 µM
COc1ccc2c(c1)c[n+](C)c1c3cc(OC)c(OC)cc3ccc21	1.36 µM and 4.32 µM	3.84 µM and 16 µM
CSc1ccccc1C#C/C=C\C#Cc1ccccc1N	14.5 µM	> 100 µM
COc1ccc(/C(=C\C=C(C#N)C#N)Sc2nc3ccccc3s2)cc1	7.34 µM	14.3 µM
COc1cc(/C=C\c2cc(OC)c(OC)c(OC)c2)cc(N/C=C\C(=O)c2cc(OC)c(OC)c(OC)c2)c1OC	2.89 µM	> 100 µM
BrCc1cccc(C[P+](c2ccccc2)(c2ccccc2)c2ccccc2)c1	6.26 µM	> 100 µM
Cc1cc(N(CCCNc2ccnc3cc(Cl)ccc23)Cc2ccc3c(c2)OCO3)nc(N2CCOCC2)n1	0.352 µM	29.2 µM
CN(C)c1ccc(N=Nc2ccccn2)c(O)c1	0.416 µM	> 100 µM
O=C(NNc1ccccc1)C(=O)NNc1ccccc1	> 100 µM	> 100 µM
Cc1nc2cc(Nc3nc(Nc4ccc(F)cc4)nc(-c4cccs4)n3)ccc2n1Cc1ccccc1	2.71 µM	52.2 µM
Cn1cc(-c2csc(-c3c[nH]c4ccc(Br)cc34)n2)c2cnccc21	2.02 µM	4.15 µM

System: SNB-19 CNS
Test: growth of human tumour cells (NCI), 48 h

SMILES	GI50 [µM]	TGI
Cn1c(Nc2ccc(C(F)(F)F)cc2)nc2cc(Oc3ccnc(-c4ncc(C(F)(F)F)[nH]4)c3)ccc21	1.04	20.1 µM
COc1ccc(-c2nsc3c2NC(=O)CC3c2cccc(OC)c2)cc1 (stereo not drawn)	3.47	> 100 µM
C[C@@]12CCC[C@@](C)(C(=O)O)C1CC[C@]13CC(=O)[C@](CO)(C1)[C@@H](O)CC32 (stereo partly drawn)	> 100	> 100 µM
O=[N+]([O-])c1ccc(CI)cc1	3.03	14.4 µM
Cn1cnnc1Sc1c([N+](=O)[O-])ncn1C		> 100 µM
C=CCC1(CN(C)C)CC/C(=C\c2ccc(Cl)cc2)C1=O (stereo not drawn)		> 100 µM
COc1ccc(-c2cc(/C=C/C(=O)c3ccc(OC)c(OC)c3)[nH]n2)cc1	1.88	5.28 µM
C[Si](C)(C)/C(I)=C/CO		64.7 µM
C[N+](C)(C)CC1CCC/C1=N\OC(=O)c1ccccc1 (stereo not drawn)		> 100 µM
CC(=O)N1CCC(=O)/C(=C/c2ccccc2)C1		> 100 µM
CCCCCCCN=C(N)c1ccc(N2CCN(c3ccc(C(N)=NCCCCCCC)cc3)CC2)cc1	0.643	17.4 µM
C[Si](C)(C)/C(Br)=C\CCN1C(=O)CCC1=O		> 100 µM
Cc1ccc(S(=O)OCc2c(C)c(C)c(COS(=O)c3ccc(C)cc3)c(C)c2C)cc1 (stereo not drawn)		> 100 µM
COc1ccc2c(c1)c[n+](C)c1c3cc(OC)c(OC)cc3ccc21		8.1 µM and 13.8 µM
CSc1ccccc1C#C/C=C\C#Cc1ccccc1N	22.2	> 100 µM
O=C1c2cc3c(cc2-c2c1c1cc(Cl)c(Cl)cc1c(=O)n2C[C@H](O)CO)OCO3	< 0.01	2.79 µM
COc1ccc(/C(=C\C=C(C#N)C#N)Sc2nc3ccccc3s2)cc1	12.6	29.6 µM

SMILES	GI50 [µM]	TGI
CC(C)(C)[Si](C)(C)OC1C(=O)C[C@H]2CCCC[C@@H]12 (stereo partly drawn)		> 100 µM
CCN(CC)CCSc1c2ccccc2nc2c(OC)ccc(OC)c12		> 100 µM
COc1cc(/C=C\c2cc(OC)c(OC)c(OC)c2)cc(N/C=C\C(=O)c2cc(OC)c(OC)c(OC)c2)c1OC	4.49	> 100 µM
[N-]=[N+]=N/C1=C/CCCCC(=O)C1		> 100 µM
BrCc1cccc(C[P+](c2ccccc2)(c2ccccc2)c2ccccc2)c1	12.1	> 100 µM
Cc1ccc(NC(=O)CCc2nnc(N)o2)cc1		> 100 µM
Cc1cc(N(CCCNc2ccnc3cc(Cl)ccc23)Cc2ccc3c(c2)OCO3)nc(N2CCOCC2)n1	0.325	> 100 µM
CCOC(=O)C1SC(=Nc2ccccc2)N=C1C (stereo not drawn)		> 100 µM
O=C1CCC(=O)c2c1c(O)c1ccncc1c2O		89.2 µM
CN(C)c1ccc(N=Nc2ccccn2)c(O)c1	0.501	> 100 µM
C=CCN1CCC23c4c5ccc(O)c4OC2C(=NN=C2CCC4(O)C6Cc7ccc(O)c8c7C4(CCN6CC=C)C2O8)CCC3(O)C1C5 (stereo not drawn)		> 100 µM
CN(C)CCNC(=O)c1cccc2c(Nc3ccc(S(=O)(=O)N=C(N)N)cc3)c3ccccc3nc12		17.9 µM
COC(=O)C1=C(C(=O)OC)C2=S(SC3=C2CCCC3)S1 (stereo not drawn)		> 100 µM
O=C(NNc1ccccc1)C(=O)NNc1ccccc1	> 100	> 100 µM
Cc1nc2cc(Nc3nc(Nc4ccc(F)cc4)nc(-c4cccs4)n3)ccc2n1Cc1ccccc1	5.29	> 100 µM
Cn1cc(-c2csc(-c3c[nH]c4ccc(Br)cc34)n2)c2cnccc21	3.67	> 100 µM
CCOC(=O)c1c(-c2ccc(OC)cc2)c(C#N)c2c(C#N)c(N)nn2c1N	4.01	22.5 µM

System: OVCAR-4 ovarian
Test: growth of human tumour cells (NCI), 48 h

SMILES	GI50 [µM]	TGI [µM]
Cn1c(Nc2ccc(C(F)(F)F)cc2)nc2cc(Oc3ccnc(-c4ncc(C(F)(F)F)[nH]4)c3)ccc21	1.21	14.4
COc1ccc(-c2nsc3c2NC(=O)CC3c2cccc(OC)c2)cc1 (stereo not drawn)	7.4	> 100
C[C@@]12CCC[C@@](C)(C(=O)O)C1CC[C@]13CC(=O)[C@](CO)(C1)[C@@H](O)CC32 (stereo partly drawn)	> 100	> 100
O=[N+]([O-])c1ccc(CI)cc1	3.6	18.6
Cn1cnnc1Sc1c([N+](=O)[O-])ncn1C		> 100
C=CCC1(CN(C)C)CC/C(=C\c2ccc(Cl)cc2)C1=O (stereo not drawn)		> 94.5
COc1ccc(-c2cc(/C=C/C(=O)c3ccc(OC)c(OC)c3)[nH]n2)cc1	0.509	3.87
C[Si](C)(C)/C(I)=C/CO		> 100
C[N+](C)(C)CC1CCC/C1=N\OC(=O)c1ccccc1 (stereo not drawn)		> 100
CC(=O)N1CCC(=O)/C(=C/c2ccccc2)C1		37.8
CCCCCCCN=C(N)c1ccc(N2CCN(c3ccc(C(N)=NCCCCCCC)cc3)CC2)cc1	1.05	> 13.2
C[Si](C)(C)/C(Br)=C\CCN1C(=O)CCC1=O		> 100
Cc1ccc(S(=O)OCc2c(C)c(C)c(COS(=O)c3ccc(C)cc3)c(C)c2C)cc1 (stereo not drawn)		> 100
C[C@]12CCC(=O)C=C1CC[C@@H]1C2CC[C@]2(C)Nc3[nH]ncc3CC12 (stereo partly drawn)		> 100
COc1ccc2c(c1)c[n+](C)c1c3cc(OC)c(OC)cc3ccc21	5.48	20.4
CSc1ccccc1C#C/C=C\C#Cc1ccccc1N	29.9	71
CC(C)(C)[Si](C)(C)OC1C(=O)C[C@H]2CCCC[C@@H]12 (stereo partly drawn)		> 100
CCN(CC)CCSc1c2ccccc2nc2c(OC)ccc(OC)c12		> 20
COc1cc(/C=C\c2cc(OC)c(OC)c(OC)c2)cc(N/C=C\C(=O)c2cc(OC)c(OC)c(OC)c2)c1OC	2.91	> 100
